One compound from patent US20070099826A1, “Treatment of diseases associated with the egr-1 enhancer element” (priority 2003, published 2007) can be followed below.

In test [1] the test system is APO A1 promoter. Kind of test: APO A1 promoter deletion constructs fused to Luc, transient transfection in CaCo2 cells. The format is cell-based, human. Conditions: 5 μM, minimum of 16 hours. The method, then:
(§1) The plasmids created for the studies contained the human APO A1 promoter from −474, −375, −325, −235, −190 to −170 fused to the firefly luciferase gene in the vector, pGL3 (Promega). Insertion of the promoter DNA was verified by nucleotide sequence analysis. Plasmid DNA was prepared from bacteria containing the desired clone and isolated using Qiagen kits according to manufacturer's instructions and used in the tansfection studies or to create a stable cell line.
(§2) For transient transfections cells were seeded onto six well plates and grown to 30-40% confluence, The cells were then transfected using 5 μl of Superfect (Qiagen) and up to one microgram of the plasmid of interest in 100 μl of serum and antibiotic free MEM. The solution was incubated for 10 minutes at room temperature. Media was then removed from the cells to be transfected and 1 ml of media was added to the DNA-Superfect mixture before being applied to the cells. The cells were then exposed to the DNA for 2 hours at 37° C./5% CO2 and then the media containing DNA was removed and replaced with serum free MEM media allowed to grow over night prior to harvest.
(§3) Cells were transfected with Luciferase plasmid of interest (see above) and left to recover overnight in serum poor media. These cells or those that were permanently transfected with the luciferase promoter were then treated with varying concentrations of resveratrol for stated periods of time. As above, RSV-beta-Gal was co-transfected as a control to normalize for DNA uptake. Cells were then harvested and suspended in reporter lysis buffer (Promega). A 10 μl aliquot of this lysate was used for determination of luciferase activity, and 5 μl were used for total protein determination (Bradford Assay, Bio-Rad reagent). Luciferase activity was then determined and expressed relative to the protein concentration of that sample.
In order to identify the potential motif(s), separate constructs containing progressively smaller amounts of APO A1 DNA were fused to the Luc gene. The activity of each construct was tested by transient transfection assay in CaCo2 cells and than treated with 5 μM resveratrol for a minimum of 16 hours. […] The number at the bottom of each set of columns denotes the 5′ location of the fragment and the 3′ end is common to all deletional clones at −7. […] In contrast, further deletion with the remaining −170 to −7 fragment of the promoted abolished the resveratrol induction of the promoter. We discovered the resveratrol responsive motif in the APO A1 DNA must span nucleotides −190 to −170.

Test [2] concerns APO A1 promoter. Kind of test: APO A1 promoter activity, Hep G2 cells permanently transfected with pA1.474-Luc. The format is cell-based, human. Conditions: 10 μM resveratrol. Here is the method:
HepG2 cells were also permanently transfected with 474-luciferase using a co-transfection method. Hep G2 cells are grown in MEM (Gibco) and 10% fetal calf serum (Gibco) and then co-transfected with 474-Luc along with another plasmid that carries neomycin resistance.
as §3
To assay for promoter activity in Hep G2 cells, the reporter construct pA1.474-Luc was inserted into the human hepatoma, Hep G2, cells along with pRSV-β-galactosidase as a monitor for transfection efficiency using conventional molecular biology techniques as later described. The transfected cells were exposed to varying concentrations of resveratrol from 0 to 100 μM for 16 hours. […]

Test [3] relates to human APO A1 promoter from −474 to −7. Kind of test: APO A1 promoter activity, pA1.474-Luc reporter transiently transfected in CaCo2 cells. The format is cell-based. The method, then:
as §1
(§4) The CaCo2 or HepG2 cells were grown in the defined media and, for promoter assay studies, transfected with the reporter construct of interest. Cells were then left in serum-free media for 8-12 hours after which time resveratrol was added to media to give a final concentration of the agent as stated in the figure legends. The cells were exposed to the agent for varying periods of time, harvested and then the parameter of interest, either APO A1 protein or promoter activity, was assayed.
as §2
Cells were transfected with Luciferase plasmid of interest (see above) and left to recover overnight in serum poor media. […] Luciferase activity was then determined and expressed relative to the protein concentration of that sample.
Next the CaCo2 cells were exposed to varying concentrations of resveratrol from 0 to 15 μM. […] At the end of the treatment, the cells were harvested and the Luc-activity measured. […]

The test system of test [4] is APO A1 promoter. Kind of test: APO A1 promoter activity, pA1.474-Luc reporter transiently transfected in Hep G2 cells. The format is cell-based, human. The method, then: as §1, §4, §2
Cells were transfected with Luciferase plasmid of interest (see above) and left to recover overnight in serum poor media. These cells or those that were permanently transfected with the luciferase promoter were then treated with varying concentrations of resveratrol for stated periods of time. As above, RSV-beta-Gal was co-transfected as a control to normalize for DNA uptake. […] Luciferase activity was then determined and expressed relative to the protein concentration of that sample. […]

Test [5] concerns APO A1 protein. Kind of test: Immunofluorescence staining of APO A1 protein in Hep G2 cells. Type of test: cell-based, human. Conditions: 5 or 10 μM. Here is the method: (§5) Human hepatoblastoma cells (HepG2) and intestinal cells (CaCo2) were obtained from the American Type Culture Collection (Rockville, Md.). Cells were grown in Minimum Essential Medium (MEM) (Gibco) supplemented with 2 mM glutamine, MEM vitamin solution and 10% fetal bovine serum (FBS) for HepG2 and 20% FBS (Gibco) for CaCo2 cells. All cells were incubated in a 95% air/5% CO2 atmosphere.
The CaCo2 or HepG2 cells were grown in the defined media and, for promoter assay studies, transfected with the reporter construct of interest. Cells were then left in serum-free media for 8-12 hours after which time resveratrol was added to media to give a final concentration of the agent as stated in the figure legends. […]
HepG2 and CaCo2 cells were grown on cover slips. […] The FITC-labeled ApoA1 peptide in cells was visualized using a Zeiss fluorescence microscope (Zeiss, Dusseldorf, Germany) with FITC excitation and emission wavelengths of 488 and 520 nm. […]
Since the APO A1 gene is expressed in both liver and small intestine, the following studies examine the ability of resveratrol to affect expression of the gene in liver cells. […] Hep G2 cells were viewed under phase contrast or fluorescence microscopy following treatment with or without resveratrol and immunostaining for their content of APO A1 protein.

Test [6] concerns APO A1 protein. Kind of test: Immunofluorescence staining of APO A1 protein in CaCo2 cells. The format is cell-based, human. As to conditions: 5 and 10 μM, 36 hours of treatment. The method, then:
as §5, §4
HepG2 and CaCo2 cells were grown on cover slips. Cover slips on which CaCo2 cells were grown were also coated with fibronectin (Calbiochem). […] The FITC-labeled ApoA1 peptide in cells was visualized using a Zeiss fluorescence microscope (Zeiss, Dusseldorf, Germany) with FITC excitation and emission wavelengths of 488 and 520 nm. […]

Test [7] deals with APO A1 protein. Kind of test: Western blot of APO A1 protein in spent media from Hep G2 cells. Type of test: cell-based, human. Conditions: 5 or 10 p,M, 36 hours. The method, then:
(§6) Media or cells were harvested from untreated and treated HepG2/CaCo2 culture dishes at various time points and stored at −80° C. when required. For experiments in which media was collected for western blotting, cells from these dishes were trypsinized (Gibco) and a 100 μl sample of cells was used to determine the percentage of dead cells by counting live/dead cell ratios using […] staining. The remaining cells were then assessed for total DNA content using method described by Maniatis, (Cloning Manual). DNA content per dish was then utilized along with ratio of live/dead cells to normalize the amount of media to be separated by polyacrylamide gel electrophoresis. For experiments requiring western blot of whole cell lysates, cells were harvested and lysed using reporter lysis reagent (Promega) and cell debris was spun down at 13,000 rpm for 5 minutes. An aliquot of the supernatant was then used to determine amount of protein per samples were using Bradford assay (Rio-Rad reagent). Equal amounts of protein from all samples were then separated by polyacrylamide gel electrophoresis as was done with media. […]
To measure whether resveratrol stimulation of the APO A1 promoter in the Hep G2 cells also increases the abundance of the protein, APO A1 secreted into the media was assessed following treatment with the compound. […]

Test [8] deals with APO A1 protein. Kind of test: Western blot of APO A1 protein in spent media from CaCo2 cells. Type of test: cell-based, human. As to conditions: 5 or 10 p,M, 36 hours. Here is the method: as §6, with “minutes.” for “minutes. An aliquot of the supernatant was then used to determine amount of protein per samples were using Bradford assay (Rio-Rad reagent). Equal amounts of protein from all samples were then separated by polyacrylamide gel electrophoresis as was done with media.”
This to experiment sought to measure whether resveratrol stimulation of transcriptional activity of the promoter in the CaCo2 cells increased the abundance of the APO A1 protein, ultimately responsible for the antiatherogenic activity of the gene. […] Longer exposure of the cells to resveratrol was utilized to allow adequate time for the APO A1 protein to be secreted into the media from the CaCo2 cells, and detected. […]
A general note: A western blot detects proteins with antibodies after separation by electrophoresis.

With `Oc1ccc(/C=C/c2cc(O)cc(O)c2)cc1` [resveratrol, trans-3,5,4′-trihydroxystilbene], in the test with APO A1 promoter [1], the “increase in promoter activity, −190 to −7 fragment” value came to 2.5 fold; the “increase in promoter activity, −235 to −7 fragment” value is 2.5 fold; the “induction of promoter activity, full-length (−474 to −7) promoter” value stood at 2.5 fold; the “induction of promoter, −170 to −7 fragment” value was “abolished”. In addition, the “maximal increase of Luc-activity” value with APO A1 promoter [2] came to 4 fold. The “optimal time point for stimulatory effect on APO A1 promoter” value in test [3] (5 μM, time points 4 to 24 hours) is given as “around 16 hours”. Besides, the “maximal stimulation of APO A1 promoter activity (Luc-activity)” value in test [3] (16 hours, resveratrol 5 to 7.5 μM) turned out to be 2.5 fold. Also, the “resveratrol concentration causing maximal stimulation of APO A1 promoter activity” value in test [3] (16 hours, tested 0 to 15 μM) lay in the range of 5 to 7.5 µM. For the same compound, the “concentration at which resveratrol becomes inhibitory on APO A1 promoter activity” value in the test with APO A1 promoter [4] (16 hours) is at least 50 µM. The “increase in Luc-activity (APO A1 promoter)” value with APO A1 promoter [4] (16 hours, 5 to 10 μM resveratrol) worked out at 3 fold. In addition, the “decrease in Luc-activity” value with APO A1 promoter [4] (16 hours, 15, 25, 50, 75 or 100 μM) is recorded as 50%. Moreover, the “fluorescence for APO A1 signal (immunostaining)” value with APO A1 protein [5] was “increase in fluorescence”. Further, the “abundance of APO A1 signal (immunohistochemical staining)” value with APO A1 protein [6] is recorded as “increase in the abundance of APO A1 signal”. Moreover, in the test on APO A1 protein [7], the “abundance of APO A1 protein in spent media (western blot)” value was “marked increase”. For the same compound, the “abundance of APO A1 protein in spent media (western blot)” value in the test on APO A1 protein [8] is “marked increase”.
